Results as given in US10144742B2 (Millennium Pharmaceuticals, Inc., priority 2014, dated 2018).

Tests used:
hNAMPT protein = hNAMPT protein (Homo sapiens (Human), UniProt P43490); test: NAMPT enzyme assay (TR-FRET/HTRF, BodiPY ligand, anti 6His-Tb); format: binding; details: for inhibition at 1 µM: NAMPT inhibition at compound concentration 1 μM, read-out: Percent Inhibition; for IC50: NAMPT inhibition, IC50 range class, read-out: IC50
Summary of the method: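 Compound or DMSO was incubated for 1 h at room temperature, protected from light, with BodiPY ligand and hNAMPT labelled by terbium anti-6His antibody. The 520 nm to 486 nm emission ratio after 320 nm excitation gave inhibition versus vehicle, from which concentration-response curves yielded IC50.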

PC3 cells = test: PC3 growth inhibition (Cell-titer glo, 72 hours); format: cell-based; details: Homo sapiens, PC-3; compound concentration 1.667 μM; PC3 cells, 72 hours, Cell-titer glo; read-out: Percent Inhibition (PC3 growth inhibition)
Summary of the method: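 Compounds in AIM serum-free medium were applied for 72 h at 37 °C, 5% CO2 to PC3 cells plated overnight from RPMI1640 culture. Luminescence after 10 min CellTiter-Glo, normalised to DMSO, gave % viability at 1 μM or 1.667 μM, or GI50/LD50.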

hNAMPT protein, sequence (P43490 whole entry): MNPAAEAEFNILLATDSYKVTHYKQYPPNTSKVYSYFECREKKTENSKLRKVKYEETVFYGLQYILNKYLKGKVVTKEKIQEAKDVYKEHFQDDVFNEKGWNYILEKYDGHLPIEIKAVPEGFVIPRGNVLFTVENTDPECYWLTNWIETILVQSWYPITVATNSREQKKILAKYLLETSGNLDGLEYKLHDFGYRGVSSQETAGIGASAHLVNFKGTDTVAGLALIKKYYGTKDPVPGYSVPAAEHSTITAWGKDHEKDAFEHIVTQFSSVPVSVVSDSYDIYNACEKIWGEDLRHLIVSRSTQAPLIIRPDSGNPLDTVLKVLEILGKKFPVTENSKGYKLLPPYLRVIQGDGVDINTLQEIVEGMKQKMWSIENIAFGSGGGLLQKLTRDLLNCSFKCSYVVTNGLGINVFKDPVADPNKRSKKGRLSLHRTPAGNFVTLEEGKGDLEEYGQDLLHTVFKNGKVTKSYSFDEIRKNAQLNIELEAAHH

Compound	inhibition at 1 µM (hNAMPT protein) [%]	IC50 (hNAMPT protein) [nM]	inhibition at 1.667 µM (PC3 cells) [%]
O=C(NCCCc1ncc[nH]1)c1ccc2nc(OCc3cccnc3)c(-c3ccc(F)cc3)nc2c1 [Compound I-409, 3-(4-fluorophenyl)-N-[3-(1H-imidazol-2-yl)propyl]-2-(pyridin-3-ylmethoxy)quinoxaline-6-carboxamide]	98	< 100	2
O=C(NCCCc1ncc[nH]1)c1ccc2nc(-c3ccc(F)cc3)c(-c3cc(Cl)cnc3F)nc2c1 [Compound I-410, 3-(5-chloro-2-fluoropyridin-3-yl)-2-(4-fluorophenyl)-N-[3-(1H-imidazol-2-yl)propyl]quinoxaline-6-carboxamide]	98	100 to 500	2
COCC(COC)Oc1nc2ccc(C(=O)NCCCc3ncc[nH]3)cc2nc1-c1ccc(F)cc1 [Compound I-411, 2-[(1,3-dimethoxypropan-2-yl)oxy]-3-(4-fluorophenyl)-N-[3-(1H-imidazol-2-yl)propyl]quinoxaline-6-carboxamide]	97	100 to 500	2
O=C(NCCCc1ncc[nH]1)c1ccc2nc(-c3ccc(F)cc3)c(-c3cc4ccccc4s3)nc2c1 [Compound I-412, 3-(1-benzothiophen-2-yl)-2-(4-fluorophenyl)-N-[3-(1H-imidazol-2-yl)propyl]quinoxaline-6-carboxamide]	96	100 to 500	6
Cc1nccn1-c1nc2ccc(C(=O)NCCCc3ncc[nH]3)cc2nc1-c1ccc(F)cc1 [Compound I-413, 3-(4-fluorophenyl)-N-[3-(1H-imidazol-2-yl)propyl]-2-(2-methyl-1H-imidazol-1-yl)quinoxaline-6-carboxamide]	80	100 to 500	3
CC(C)Oc1nc2ccc(C(=O)NCCCc3ncc[nH]3)cc2nc1-c1cc(C#N)ccc1F [Compound I-414, 3-(5-cyano-2-fluorophenyl)-N-[3-(1H-imidazol-2-yl)propyl]-2-isopropoxyquinoxaline-6-carboxamide]	95	< 100	1
COc1ccc(-c2nc3cc(C(=O)NCCCc4ncc[nH]4)ccc3nc2-c2ccc(F)cc2)c(F)c1 [Compound I-415, 3-(2-fluoro-4-methoxyphenyl)-2-(4-fluorophenyl)-N-[3-(1H-imidazol-2-yl)propyl]quinoxaline-6-carboxamide]	75	100 to 500	2
C#Cc1ccc(-c2nc3cc(C(=O)NCCCc4ncc[nH]4)ccc3nc2-c2ccc(F)cc2)cc1 [Compound I-416, 3-(4-ethynylphenyl)-2-(4-fluorophenyl)-N-[3-(1H-imidazol-2-yl)propyl]quinoxaline-6-carboxamide]	76	100 to 500	2
O=C(NCCCc1ncc[nH]1)c1ccc2nc(-c3ccc(F)cc3)c(-c3ccc4nccn4c3)nc2c1 [Compound I-417, 2-(4-fluorophenyl)-N-[3-(1H-imidazol-2-yl)propyl]-3-(imidazo[1,2-a]pyridin-6-yl)quinoxaline-6-carboxamide]	81	100 to 500	2
O=C(NCCCc1ncc[nH]1)c1ccc2nc(-n3cncn3)c(-c3ccc(F)cc3)nc2c1 [Compound I-418]	60	500 to 1000	3
Nc1ccc(CCCNC(=O)c2ccc3nc(-c4ccc(F)cc4)c(-c4ccc(F)cc4)nc3c2)cn1 [Compound I-419, N-[3-(6-aminopyridin-3-yl)propyl]-2,3-bis(4-fluorophenyl)quinoxaline-6-carboxamide]	52	500 to 1000	3
O=C(NCCCc1ncc[nH]1)c1ccc2nc(OCCc3ccccc3)c(-c3ccc(F)cc3)nc2c1 [Compound I-420, 3-(4-fluorophenyl)-N-[3-(1H-imidazol-2-yl)propyl]-2-(2-phenylethoxy)quinoxaline-6-carboxamide]	97	< 100	2
CC(C)Oc1nc2ccc(C(=O)NCCCc3ncc[nH]3)cc2nc1-c1cccc(SC(F)(F)F)c1 [Compound I-421, N-[3-(1H-imidazol-2-yl)propyl]-2-isopropoxy-3-{3-[(trifluoromethyl)sulfanyl]phenyl}quinoxaline-6-carboxamide]	78	100 to 500	1
Cc1cc(-c2nc3cc(C(=O)NCCCc4ncc[nH]4)ccc3nc2-c2ccc(F)cc2)c(C)s1 [Compound I-422, 3-(2,5-dimethyl-3-thienyl)-2-(4-fluorophenyl)-N-[3-(1H-imidazol-2-yl)propyl]quinoxaline-6-carboxamide]	92	< 100	3
CN1CCCC(Oc2nc3ccc(C(=O)NCCCc4ncc[nH]4)cc3nc2-c2ccc(F)cc2)C1 (stereo not drawn) [Compound I-423, 3-(4-fluorophenyl)-N-[3-(1H-imidazol-2-yl)propyl]-2-[(1-methylpiperidin-3-yl)oxy]quinoxaline-6-carboxamide]	88	100 to 500	2
CC(C)Oc1nc2ccc(C(=O)NCCc3cncn3C)cc2nc1-c1ccc(F)cc1 [Compound I-424, 3-(4-fluorophenyl)-2-isopropoxy-N-[2-(1-methyl-1H-imidazol-5-yl)ethyl]quinoxaline-6-carboxamide]	76	100 to 500	1
C#Cc1cccc(-c2nc3cc(C(=O)NCCCc4ncc[nH]4)ccc3nc2-c2ccc(F)cc2)c1 [Compound I-425, 3-(3-ethynylphenyl)-2-(4-fluorophenyl)-N-[3-(1H-imidazol-2-yl)propyl]quinoxaline-6-carboxamide]	87	100 to 500	3
COc1cc(-c2nc3cc(C(=O)NCc4ccc5nccn5c4)ccc3nc2OC(C)C)ccc1F [Compound I-426, 3-(4-fluoro-3-methoxyphenyl)-N-(imidazo[1,2-a]pyridin-6-ylmethyl)-2-isopropoxyquinoxaline-6-carboxamide]	99	< 100	0
COC1CC(Oc2nc3ccc(C(=O)NCCCc4ncc[nH]4)cc3nc2-c2ccc(F)cc2)C1 (stereo not drawn) [Compound I-427, 3-(4-fluorophenyl)-N-[3-(1H-imidazol-2-yl)propyl]-2-[(3-methoxycyclobutyl)oxy]quinoxaline-6-carboxamide]	99	< 100	2
Cc1cc(C)n(-c2nc3ccc(C(=O)NCCCc4ncc[nH]4)cc3nc2-c2ccc(F)cc2)n1 [Compound I-428, 2-(3,5-dimethyl-1H-pyrazol-1-yl)-3-(4-fluorophenyl)-N-[3-(1H-imidazol-2-yl)propyl]quinoxaline-6-carboxamide]	71	100 to 500	2
O=C(NCCCc1ncc[nH]1)c1ccc2nc(-c3ccc(F)cc3)c(-c3cn[nH]c3)nc2c1 [Compound I-429, 2-(4-fluorophenyl)-N-[3-(1H-imidazol-2-yl)propyl]-3-(1H-pyrazol-4-yl)quinoxaline-6-carboxamide]	90	100 to 500	76
